{
  "source": "paper PMC7108782",
  "about": "“Direct interaction of metastasis-inducing S100P protein with tubulin causes enhanced cell migration without changes in cell adhesion” (Biochemical Journal, 2020)",
  "key": {"[1]": {"test_system": "Dicytostelial cells", "conditions": "ref [40]; cited from earlier work", "description": "It was reported that complete disruption of MTs in CHO and HeLa cells retained normal migration rates, but the resultant movement became more random and reduced overall travel distance. […] Well-established MTs may increase the rigidity of cells as well as their polarity and play a constraining role to limit a cell's ability of moving and changing direction. […] However, unlike the scratch wound- ..."}, "[2]": {"type": "physicochemical", "conditions": "pH 6.1", "protocol": "^1H, ^15N HSQC spectra were measured at 40°C in 20 mM 2-morpholinoethanesulfonic acid sodium salt (MES), 50 mM NaCl, 0.5 mM CaCl2, 2 mM Tris-carboxyethyl-phosphine (TCEP), pH 6.1 buffer as described previously. Samples were prepared from 1.6 mM solution of ^15N-labelled S100P and 2–5 mM peptide solutions to obtain a 1 : 1 mixture of 0.1 mM of S100P and 0.1 mM of each peptide. Initially, peptide solutions were prepared by weight to produce 5 mM peptide concentrations. […] In these cases, buffer was added to reduce the peptide concentration to 2 mM. […] These peptides were added to the protein as cloudy suspensions to produce 0.1 mM solutions; some precipitations were still detected. To estimate the peptide concentrations, equivalent peptide solutions without the protein were prepared. All solutions were centrifuged before the NMR measurements. NMR spectra were collected on Bruker Avance III 800 MHz spectrometer equipped with CryoProbe. Data were processed and analysed in TopSpin 3.5 (Bruker, Karlsruhe, Germany).\nMeasurements were conducted using an ITC-200 instrument (Microcal) as previously described. ITC titrations were performed in 20 mM MES pH 6.1, 50 mM NaCl, 1.0 mM TCEP and 5 mM CaCl2 (for Ca^2+-form of S100P) at 25°C. […]"}, "[3]": {"target": "T1, S100P (Homo sapiens, UniProt P25815)", "T1 construct": "made in house", "T1 sequence (P25815 1-95)": "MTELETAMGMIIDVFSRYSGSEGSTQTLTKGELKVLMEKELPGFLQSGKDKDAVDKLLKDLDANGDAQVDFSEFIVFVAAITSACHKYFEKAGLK", "test": "Isothermal titration calorimetry (ITC) of tubulin peptides with S100P", "type": "binding", "conditions": "ITC, 25°C, 20 mM MES pH 6.1, 50 mM NaCl, 1.0 mM TCEP, 5 mM CaCl2; single site fit; peptide in cell, S100P titrated", "protocol": "Measurements were conducted using an ITC-200 instrument (Microcal) as previously described. ITC titrations were performed in 20 mM MES pH 6.1, 50 mM NaCl, 1.0 mM TCEP and 5 mM CaCl2 (for Ca^2+-form of S100P) at 25°C. Due to low solubility, peptide solutions at concentrations of 10–400 µM were placed in the cell and titrated with S100P at concentrations of 0.5–3 mM, depending on the peptide concentration. Data were integrated and fitted to a single site binding equation using Origin 7 software which was included with the ITC module (Malvern Microcal, Malvern, U.K.)."}, "[4]": {"test_system": "Rama 37 cells", "test": "Boyden chamber cell migration with MT regulators, Rama 37", "conditions": "20 nM taxol, 24 h"}, "[5]": {"test_system": "HeLa-A3 cells", "test": "S100P-enhanced cell migration, HeLa-A3", "type": "cell-based, human", "conditions": "HeLa-A3; 20 nM taxol or 5 µM colchicine, 24 h", "description": "(§1) Cell migration rate (%) = M/G × 100."}, "[6]": {"test_system": "cell migration", "conditions": "almost all cell types tested, ref [17]; cited from earlier work", "description": "It was reported that complete disruption of MTs in CHO and HeLa cells retained normal migration rates, but the resultant movement became more random and reduced overall travel distance."}, "[7]": {"test_system": "Rama 37-T25 cells", "test": "S100P-enhanced cell migration, Rama 37-T25", "type": "cell-based, rat", "conditions": "Rama 37-T25; 20 nM taxol or 5 µM colchicine, 24 h", "description": "as §1"}, "[8]": {"test_system": "COS-7 S10 cells", "test": "Boyden chamber cell migration, S100P-inducible COS-7", "type": "cell-based, monkey", "conditions": "for effect on S100P-enhanced migration: COS-7 S10, 20 nM taxol or 5 µM colchicine, 24 h", "description": "as §1"}, "[9]": {"test_system": "COS-7 cells", "test": "Boyden chamber cell migration, COS-7 parental", "type": "cell-based, monkey", "description": "as §1"}, "[10]": {"test_system": "MCF-7 cells", "test": "Boyden chamber cell migration with MT regulators, MCF-7", "conditions": "20 nM taxol, 24 h, MCF-7"}, "[11]": {"test_system": "HeLa cells", "test": "Boyden chamber cell migration with MT regulators, HeLa", "conditions": "20 nM taxol, 24 h"}, "[12]": {"target": "VNA peptide from the C terminus of α-tubulin (human)", "test": "ITC; peptide (10-400 µM) in the cell titrated with S100P (0.5-3 mM); 25°C; 20 mM MES pH 6.1, 50 mM NaCl, 1.0 mM TCEP, 5 mM CaCl2; single site fit"}, "[13]": {"target": "DIC peptide, the 26mer starting with DIC from β-tubulin", "test": "ITC; peptide (10-400 µM) in the cell titrated with S100P (0.5-3 mM); 25°C; 20 mM MES pH 6.1, 50 mM NaCl, 1.0 mM TCEP, 5 mM CaCl2; single site fit"}, "[14]": {"target": "T2, α,β-tubulin immobilised on a chip (human | , UniProt Q71U36 1-451; P07437 1-444)", "T2 sequence (P68363 whole entry, chain 1 of 2)": "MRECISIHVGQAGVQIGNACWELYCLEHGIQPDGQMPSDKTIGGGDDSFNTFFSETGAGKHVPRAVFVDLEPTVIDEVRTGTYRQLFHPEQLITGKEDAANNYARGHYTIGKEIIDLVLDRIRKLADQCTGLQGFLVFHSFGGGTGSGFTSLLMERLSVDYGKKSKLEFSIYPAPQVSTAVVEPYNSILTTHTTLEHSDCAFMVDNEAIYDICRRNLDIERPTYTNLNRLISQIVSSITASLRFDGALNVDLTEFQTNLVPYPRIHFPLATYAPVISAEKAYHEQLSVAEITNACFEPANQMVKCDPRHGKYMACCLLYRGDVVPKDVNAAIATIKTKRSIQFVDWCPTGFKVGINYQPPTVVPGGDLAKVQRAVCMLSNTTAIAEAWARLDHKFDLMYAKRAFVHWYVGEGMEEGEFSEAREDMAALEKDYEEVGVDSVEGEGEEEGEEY", "T2 sequence (P07437 whole entry, chain 2 of 2)": "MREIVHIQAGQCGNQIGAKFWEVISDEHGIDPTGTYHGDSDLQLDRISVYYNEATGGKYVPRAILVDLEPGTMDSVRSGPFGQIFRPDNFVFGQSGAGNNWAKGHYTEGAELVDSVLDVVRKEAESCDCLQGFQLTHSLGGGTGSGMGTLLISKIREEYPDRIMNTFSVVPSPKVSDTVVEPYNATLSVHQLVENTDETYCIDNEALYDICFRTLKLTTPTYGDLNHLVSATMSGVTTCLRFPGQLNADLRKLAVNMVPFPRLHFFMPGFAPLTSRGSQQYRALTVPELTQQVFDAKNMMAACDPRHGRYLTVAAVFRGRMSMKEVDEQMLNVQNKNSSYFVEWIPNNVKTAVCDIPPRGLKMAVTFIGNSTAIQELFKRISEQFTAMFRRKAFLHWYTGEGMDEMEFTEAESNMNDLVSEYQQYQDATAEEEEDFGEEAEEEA", "test": "cell-based or functional assay"}, "[15]": {"target": "T2, α,β-tubulin immobilised on a chip", "test": "SPR; α,β-tubulin immobilised on CM5 chip; S100P in solution; single-cycle analysis; Kd near equilibrium", "conditions": "both partners purified"}, "[16]": {"target": "T2, α,β-tubulin immobilised on a chip", "test": "SPR; α,β-tubulin immobilised on CM5 chip; S100P in solution; high salt buffer (0.5 M NaCl) with 200 µM CaCl2; multiple cycles; Kd at or near equilibrium", "conditions": "both partners purified"}, "[17]": {"target": "T2, α,β-tubulin immobilised on a chip", "test": "SPR; α,β-tubulin immobilised on CM5 chip (BS3), Biacore X100; S100P 20-2000 nM in solution; 0.15 M NaCl, 200 µM CaCl2; multiple-cycle; Kd from extent of binding near equilibrium", "conditions": "both partners purified"}, "[18]": {"target": "T2, α,β-tubulin immobilised on a chip", "test": "SPR; α,β-tubulin immobilised on CM5 chip; S100P in solution; Kd from the ratio of forward and backward rate constants", "conditions": "both partners purified"}},
  "note": "Entries after “also recorded” stand apart in the source; their conditions may differ. No end group written: not given here.",
  "data": [
    {"molecule": "COC(=O)Nc1nc2ccc(C(=O)c3cccs3)cc2[nH]1", "note": "[nocodazole]", "values": [
      {"measurement": "effect on cell migration", "setting": "[1]", "result": "could significantly increase cell migration and shape changes, but reduced chemotaxis; also recorded: dramatically enhance the non-directional (random) movements"}
    ]},
    {"molecule": "DICFRTLKLTTPTYGDLNHLVSATMS [DIC]", "values": [
      {"measurement": "solubility / aggregation (in words)", "setting": "[2]", "result": "sufficiently soluble to measure their binding parameters by ITC"},
      {"measurement": "Kd", "setting": "[3]", "result": 9, "unit": "µM"}
    ]},
    {"molecule": "CC(=O)O[C@H]1C(=O)[C@@]2(C)[C@H]([C@H](OC(=O)c3ccccc3)[C@]3(O)C[C@H](OC(=O)[C@H](O)[C@@H](NC(=O)c4ccccc4)c4ccccc4)C(C)=C1C3(C)C)[C@]1(OC(C)=O)CO[C@@H]1C[C@@H]2O", "note": "[taxol]", "values": [
      {"measurement": "reduction of migration by taxol", "setting": "[4]", "result": "70–75%"},
      {"measurement": "effect on S100P-enhanced migration", "setting": "[5]", "result": "suppressed"},
      {"measurement": "effect on cell migration", "setting": "[6]", "result": "significantly reduced cell migration in almost all cell types tested"},
      {"measurement": "effect on S100P-enhanced migration", "setting": "[7]", "result": "suppressed"},
      {"measurement": "effect on S100P-enhanced migration", "setting": "[8]", "result": "suppressed"},
      {"measurement": "effect on S100P-enhanced migration", "setting": "[8]; listed as Taxol", "result": "completely prevents the S100P-induced stimulation of migration"},
      {"measurement": "effect on S100P's stimulation of migration", "setting": "[8]; taxol to stabilise MTs or colchicine to dissociate MTs (abstract)", "result": "abolished"},
      {"measurement": "reduction of migration by taxol", "setting": "[9]; 20 nM taxol, 24 h, COS-7", "result": "70–75%"},
      {"measurement": "dose dependence of taxol effect on migration", "setting": "[9]; Supplementary Figure S4, COS-7, 24 h", "result": "significantly reduced cell migration in a dose-dependent manner"},
      {"measurement": "reduction of migration by taxol", "setting": "[10]", "result": "70–75%"},
      {"measurement": "reduction of migration by taxol", "setting": "[11]", "result": "70–75%"}
    ]},
    {"molecule": "Recombinant S100P (natural protein, 15N-labelled in the NMR experiments, S100P; Used in SPR, gel overlay, NMR and ITC; also called 15N-labelled S100P; source: recombinant, produced as described previously [10]) MTELETAMGMIIDVFSRYSGSEGSTQTLTKGELKVLMEKELPGFLQSGKDKDAVDKLLKDLDANGDAQVDFSEFIVFVAAITSACHKYFEKAGLK", "values": [
      {"measurement": "Kd", "setting": "[12]", "result": 62, "unit": "µM"},
      {"measurement": "stoichiometry N (peptide:protein)", "setting": "[12]", "result": 2},
      {"measurement": "Kd", "setting": "[13]", "result": 9, "unit": "µM"},
      {"measurement": "S100P-induced fold increase in migration of COS-7 S10 cells (3.4 or 3.5 fold with DMSO or Tag), with 20 µM T-DIC", "setting": "[14]", "result": 1.4, "unit": "fold"},
      {"measurement": "S100P-induced fold increase in migration of COS-7 S10 cells (3.4 or 3.5 fold with DMSO or Tag), with 20 µM T-DLV", "setting": "[14]", "result": 1.5, "unit": "fold"},
      {"measurement": "Kd", "setting": "[15]", "result": 0.22, "unit": "µM"},
      {"measurement": "Kd", "setting": "[16]", "result": 6.1, "unit": "µM"},
      {"measurement": "Kd", "setting": "[17]", "result": 0.31, "unit": "µM"},
      {"measurement": "Kd", "setting": "[18]", "result": "0.1 to 0.2", "unit": "µM"}
    ]}
  ]
}
